Article PMC11432330, “Novel Drug-like HsrA Inhibitors Exhibit Potent Narrow-Spectrum Antimicrobial Activities against Helicobacter pylori” (International Journal of Molecular Sciences, 2024)
Converted amounts (≈) assume the structure as drawn. “Also recorded” adds a separate entry of the source. Where two headings read alike, the source gives them in different places.

Experiments:
[1] = system: H. pylori strain ATCC 700392; test: Time-kill kinetic assay; format: cell-based, Helicobacter pylori; settings: 4 × MIC, 10^4 CFU/mL
Experimental: Time-kill kinetics of selected HsrA inhibitors were carried out as previously described, with slight modifications. Briefly, fresh grown cells of H. pylori strain ATCC 700392 were resuspended in BHI + FBS at 1.0 × 10^4 CFU/mL and exposed to 4 × MIC of each compound. Bacteria exposed to DMSO (vehicle) instead of the HsrA inhibitors were included as a control. All cultures were incubated at 37 °C under microaerobic conditions, and aliquots were taken after 0, 2, 4, 8, and 24 h of exposure for CFU determination. Experiments were performed twice in triplicate. Results were presented as log10 CFU/mL versus hours of exposure. Differences in H. pylori survival were subjected to statistical analysis by using the Mann–Whitney U test.

[2] = system: H. pylori Donostia 2 (LVX-R); test: MIC/MBC, broth microdilution; format: cell-based, Helicobacter pylori; settings: Helicobacter pylori
Experimental: (§1) The antimicrobial activity of the HsrA inhibitors was evaluated by the determination of the minimal inhibitory concentration (MIC) against four different strains of H. pylori: ATCC 700392 (aka 26695), ATCC 43504 (MTZ-resistant reference strain), ATCC 700684 (CLR-resistant reference strain), and Donostia 2 (LVX-resistant clinical isolate). The MICs were determined by the broth microdilution method, as previously described. Briefly, H. pylori strains were grown in blood agar at 37 °C for 72 h under microaerobic conditions. Fresh inoculums adjusted at OD600 = 0.01 [~10^6 colony forming units (CFU) per mL] in BHI broth supplemented with 4% fetal bovine serum (BHI + FBS) were prepared and immediately exposed to final concentrations between 64 and 0.031 mg/L of each compound of interest. The compound solvent (DMSO) as well as conventional antibiotics (MTZ, CLR, LVX) were included as controls. […] Each experiment was performed twice in triplicate. The MIC and MBC values of the selected compounds against C. jejuni ATCC 33560 were determined by using the same method and culture conditions described for the H. pylori strains.

[3] = system: H. pylori ATCC 700684 (CLR-R); test: MIC/MBC, broth microdilution; format: cell-based, Helicobacter pylori; settings: Helicobacter pylori; for MBC: ATCC700684, read-out: MBC; for MIC: ATCC700684, read-out: MIC
Experimental: as §1

[4] = system: H. pylori ATCC 43504 (MTZ-R); test: MIC/MBC, broth microdilution; format: cell-based, Helicobacter pylori; settings: Helicobacter pylori, ATCC43504
Experimental: as §1

[5] = system: H. pylori ATCC 700392 (26695); test: MIC/MBC, broth microdilution; format: cell-based, Helicobacter pylori; settings: Helicobacter pylori, ATCC700392
Experimental: as §1

[6] = system: K. pneumoniae ATCC 700603; test: MIC/MBC according to EUCAST guidelines; format: cell-based, Klebsiella pneumonia; settings: Klebsiella pneumoniae, ATCC700603
Experimental: The antimicrobial activities of the selected compounds against several Gram-negative and Gran-positive representative species of normal human microbiota were determined according to the EUCAST guidelines. Briefly, standardized inoculums (0.5 McFarland) were freshly prepared from overnight Mueller–Hinton agar plates of reference strains E. coli ATCC 25922, K. pneumonia ATCC 700603, E. faecalis ATCC 29212, S. aureus ATCC 29213, S. epidermidis ATCC 12228, and S. agalactiae ATCC 12386. Next, bacterial suspensions adjusted to 5 × 10^5 CFU/mL in Mueller–Hinton broth were exposed to a range of concentrations from 64 to 0.031 mg/L of the selected compounds. DMSO and conventional antibiotics LVX and AMP were included as controls. […] Experiments were performed twice in triplicate.

C. jejuni ATCC 33560 = test: MIC/MBC, broth microdilution; format: cell-based; settings: Campylobacter jejuni, ATCC33560, C. jejuni ATCC 33560
Experimental: as §1

response regulator HsrA = test: EMSA: inhibition of in vitro DNA binding activity of HsrA to promoter PporGDAB; format: biochemical, Helicobacter pylori; settings: 6 μM HsrA, 120 ng PporGDAB, ligand 0.1-2 mM
Experimental: The DNA binding activities of recombinant HsrA and CosR were assessed in vitro by electrophoretic mobility shift assays (EMSAs). A 300-bp promoter region of the H. pylori 26695 operon porGDAB was used as the target sequence of HsrA in all EMSA experiments. Likewise, a 420-bp sequence of the C. jejuni sodB promoter (ATCC 33560) was used as the target DNA of CosR [90]. The oligonucleotides used for the synthesis of these promoter regions are described in Supplementary Table S4. Response regulators HsrA (6 μM) or CosR (700 nM) were mixed with 120 ng of their target promoters in a reaction buffer of 10 mM bis-Tris (pH 7.5), 40 mM KCl, 100 mg/L BSA, 1 mM DTT, and 5% glycerol. For the in vitro inhibition analyses, mixtures of target DNA and response regulator were exposed to 2, 1, 0.5, and 0.1 mM of each compound of interest, incubated at room temperature for 20 min, and then separated on a 6% non-denaturing electrophoresis. DMSO instead of inhibitors was included as a vehicle control, while an internal sequence of the Anabaena sp. pkn22 gene was used as the non-specific competitor in all assays. For DNA-protein binding visualization, gels were stained with the SYBR Safe DNA gel stain (Invitrogen) and analyzed with a Gel Doc 2000 Image Analyzer (Bio-Rad).

[7] = H. pylori Donostia 2 (LVX-R), read-out: MBC
[8] = H. pylori Donostia 2 (LVX-R), read-out: MIC
[9] = H. pylori ATCC 43504 (MTZ-R), read-out: MBC
[10] = H. pylori ATCC 43504 (MTZ-R), read-out: MIC
[11] = H. pylori ATCC 700392 (26695), read-out: MBC
[12] = H. pylori ATCC 700392 (26695), read-out: MIC

Structure (SMILES)	Exposure time after which 10^4 H. pylori cells were completely killed [1] [h]	MBC [2, 7] [µg/mL]	MIC [2, 8] [µg/mL]	MBC [3] [µg/mL]	MIC [3] [µg/mL]	MBC [4, 9] [µg/mL]	MIC [4, 10] [µg/mL]	MBC [5, 11] [µg/mL]	MIC [5, 12] [µg/mL]	MBC [6] [µg/mL]	MIC [6] [µg/mL]	MBC (C. jejuni ATCC 33560) [µg/mL]	MIC (C. jejuni ATCC 33560) [µg/mL]	Inhibition of in vitro DNA binding activity of HsrA (EMSA) (response regulator HsrA)	MBC [2] [µg/mL]	MIC [2] [µg/mL]	MBC [4] [µg/mL]	MIC [4] [µg/mL]	MBC [5] [µg/mL]	MIC [5] [µg/mL]
CSc1cccc(NC(=S)NCCNc2c([N+](=O)[O-])cc(C(F)(F)F)cc2[N+](=O)[O-])c1 [Ligand IV]	4	4 (≈ 8.41 µM)	4 (≈ 8.41 µM)	4 (≈ 8.41 µM)	4 (≈ 8.41 µM)	4 (≈ 8.41 µM)	2 (≈ 4.21 µM)	4 (≈ 8.41 µM)	2 (≈ 4.21 µM)	> 64	> 64	> 64	64 (≈ 135 µM)	appreciably stronger; also recorded: noticeably inhibited						
OC1(C(F)(F)F)CC(c2ccc3c(c2)Nc2ccccc2S3)=NN1 (stereo not drawn) [Ligand VIII]	2	2 (≈ 5.69 µM)	2 (≈ 5.69 µM)	2 (≈ 5.69 µM)	1 (≈ 2.85 µM)	2 (≈ 5.69 µM)	1 (≈ 2.85 µM)	2 (≈ 5.69 µM)	1 (≈ 2.85 µM)	> 64	> 64	32 (≈ 91.1 µM)	16 (≈ 45.5 µM)	appreciably stronger; also recorded: noticeably inhibited						
NC(=NOC(=O)Nc1ccc(Cl)cc1)c1csc([N+](=O)[O-])c1 [Ligand V, N′-{[(4-chloroanilino)carbonyl]}oxy-5-nitrothiophene-3-carboximidamide]	2			0.031 (≈ 0.091 µM)	0.031 (≈ 0.091 µM)					> 64	> 64	≤ 0.5	≤ 0.5	noticeably inhibited	0.125 (≈ 0.367 µM)	0.125 (≈ 0.367 µM)	0.125 (≈ 0.367 µM)	0.125 (≈ 0.367 µM)	0.125 (≈ 0.367 µM)	0.063 (≈ 0.185 µM)
N#C/C(=C\C=C\c1ccccc1)c1nc2ccccc2[nH]1 [Ligand XII]	4	1 (≈ 3.69 µM)	1 (≈ 3.69 µM)	0.5 (≈ 1.84 µM)	0.5 (≈ 1.84 µM)	0.5 (≈ 1.84 µM)	0.5 (≈ 1.84 µM)	2 (≈ 7.37 µM)	2 (≈ 7.37 µM)	> 64	> 64	> 64	64 (≈ 236 µM)	noticeably inhibited						
N#Cc1cnn(-c2ccc(C(F)(F)F)cc2[N+](=O)[O-])c1N [Ligand I]	8	2 (≈ 6.73 µM)	2 (≈ 6.73 µM)	4 (≈ 13.5 µM)	4 (≈ 13.5 µM)	1 (≈ 3.36 µM)	1 (≈ 3.36 µM)	4 (≈ 13.5 µM)	4 (≈ 13.5 µM)	> 64	> 64	32 (≈ 108 µM)	32 (≈ 108 µM)	noticeably inhibited						
CSc1cccc(Nc2nc(C(C)(C)C)cs2)c1 [Ligand XI]	4	4 (≈ 14.4 µM)	2 (≈ 7.18 µM)	4 (≈ 14.4 µM)	2 (≈ 7.18 µM)	4 (≈ 14.4 µM)	2 (≈ 7.18 µM)	4 (≈ 14.4 µM)	4 (≈ 14.4 µM)	> 64	> 64	> 64	> 64	noticeably inhibited						
